# According to patent US20050282818A1, “Ubiquitin ligase inhibitors” (Rigel Pharmaceuticals, Inc., priority 2004, published 2005):
# Read-outs that look alike come from different tables or passages of the source.
# What was measured:
# TRAF6/Uev1A/Ubc13 = target: T1, TRAF6/Uev1A/Ubc13 (Homo sapiens, UniProt Q9Y4K3); assay: TRAF6/Uev1A/Ubc13 plate-based ubiquitin ligase assay; type: biochemical
# T1 sequence (Q9Y4K3 1-522): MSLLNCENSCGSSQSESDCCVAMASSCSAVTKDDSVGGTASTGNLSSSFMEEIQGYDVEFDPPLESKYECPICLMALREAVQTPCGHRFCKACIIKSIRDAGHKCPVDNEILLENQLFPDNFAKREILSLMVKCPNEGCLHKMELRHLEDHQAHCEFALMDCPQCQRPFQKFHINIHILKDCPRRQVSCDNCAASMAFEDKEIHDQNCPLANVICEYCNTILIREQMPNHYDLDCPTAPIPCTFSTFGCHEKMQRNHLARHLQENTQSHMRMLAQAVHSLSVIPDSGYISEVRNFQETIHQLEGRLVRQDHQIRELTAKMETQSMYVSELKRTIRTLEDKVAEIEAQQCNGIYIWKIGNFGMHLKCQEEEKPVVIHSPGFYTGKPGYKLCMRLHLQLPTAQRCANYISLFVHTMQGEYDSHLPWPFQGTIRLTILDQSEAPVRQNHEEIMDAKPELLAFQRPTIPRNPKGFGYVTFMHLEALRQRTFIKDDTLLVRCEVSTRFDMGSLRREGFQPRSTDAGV
# In short: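 Ligase activity was read as luminescence from anti-Flag/HRP detection of Flag-ubiquitin bound to casein-blocked Ni-plates alongside His-ubiquitin after a 1 h room-temperature reaction. Buffer: 62.5 mM Tris pH 7.5, 6.25 mM MgCl2, 1.0 mM DTT, 2 μM ATP; E1, Uev1a/Ubc13 and TRAF6 added last to start. IC50s derived across compound concentrations.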
# A549 cells = assay: Cell proliferation PAD assay, A549; type: cell-based; conditions: Homo sapiens, 48 hours
# In short: (§1)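 Each line, seeded at 2,000 cells/well, received duplicate 6.3-fold compound dilutions (10 mM stock, diluted 500× into medium) one day after plating. Exposure lasted 48 h; fixed cells were DAPI-stained and photographed, and images were analysed for live, apoptotic and dead cell numbers.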
# H1299 cells = assay: Cell proliferation PAD assay, H1299; type: cell-based; conditions: Homo sapiens, 48 hours
# In short: as §1
# [1] = NCI-H1299, 6pt, read-out: H1299 6pt
# [2] = NCI-H1299, 3pt, read-out: H1299 3pt
Compound,IC50 (TRAF6/Uev1A/Ubc13) [µM],"IC50 (A549 cells; 6pt, read-out: A549 6pt) [µM]",IC50 (H1299 cells; [1]) [µM],"IC50 (A549 cells; 3pt, read-out: A549 3pt) [µM]",IC50 (H1299 cells; [2]) [µM]
"O=[N+]([O-])c1ccc(Sc2cccc3cccnc23)c2nonc12 [compound 5, 8-[(7-Nitro-2,1,3-benzoxadiazol-4-yl)thio]quinoline]",1 to 20,< 1,< 1,,
"O=[N+]([O-])c1ccc(Oc2c(Cl)cc(S(=O)(=O)Nc3cccc4nsnc34)cc2Cl)c(Cl)c1 [compound 73, N-2,1,3-benzothiadiazol-4-yl-3,5-dichloro-4-(2-chloro-4-nitrophenoxy)benzenesulfonamide]",1 to 20,1 to 20,1 to 20,≥ 20,≥ 20
"O=S(=O)(Nc1cccc2nonc12)c1ccc(Oc2ncc(C(F)(F)F)cc2Cl)cc1 [compound 78, N-2,1,3-benzoxadiazol-4-yl-4-{[3-chloro-5-(trifluoromethyl)pyridin-2-yl]oxy}benzenesulfonamide]",1 to 20,,,,
"O=[N+]([O-])c1ccc(N2CCN(c3cc(C(F)(F)F)ccn3)CC2)c2nonc12 [compound 90, 4-nitro-7-{4-[4-(trifluoromethyl)pyridin-2-yl]piperazin-1-yl}-2,1,3-benzoxadiazole]",1 to 20,1 to 20,1 to 20,≥ 20,≥ 20
"O=S(=O)(Nc1cccc2nsnc12)c1ccc(Oc2ccccc2)cc1 [compound 94, N-2,1,3-benzothiadiazol-4-yl-4-phenoxybenzenesulfonamide]",1 to 20,,,,
"O=[N+]([O-])c1ccc(N2CCN(c3ncccn3)CC2)c2nonc12 [compound 109, 4-nitro-7-(1,3-(pyrimidin-2-yl)piperazin-1-yl)-2,1,3-benzoxadiazole]",1 to 20,,,≥ 20,≥ 20
"O=[N+]([O-])c1ccc(Oc2ccc(S(=O)(=O)Nc3cccc4nonc34)cc2Cl)c(C(F)(F)F)c1 [compound 114, N-2,1,3-benzoxadiazol-4-yl-3-chloro-4-[4-nitro-2-(trifluoromethyl)phenoxy]benzenesulfonamide]",1 to 20,,,,
"N#Cc1ccc(N2CCN(c3ccc([N+](=O)[O-])c4nonc34)CC2)nc1 [compound 121, 6-[4-(7-nitro-2,1,3-benzoxadiazol-4-yl)piperazin-1-yl]nicotinonitrile]",1 to 20,,,≥ 20,≥ 20
"Cc1ccc(N2CCN(c3ccc([N+](=O)[O-])c4nonc34)CC2)cc1C [compound 140, 4-[4-(3,4-dimethylphenyl)piperazin-1-yl]-7-nitro-2,1,3-benzoxadiazole]",1 to 20,,,≥ 20,≥ 20
"N#CC1(c2ccccc2)CCN(c2ccc([N+](=O)[O-])c3nonc23)CC1 [compound 141, 1-(7-nitro-2,1,3-benzoxadiazol-4-yl)-4-phenylpiperidine-4-carbonitrile]",1 to 20,,,≥ 20,≥ 20
"O=C(c1ccc(F)cc1)C1CCN(c2ccc([N+](=O)[O-])c3nonc23)CC1 [compound 142, (4-fluorophenyl)[1-(7-nitro-2,1,3-benzoxadiazol-4-yl)piperidin-4-yl]methanone]",1 to 20,,,≥ 20,≥ 20
"CC1CC(C)CN(c2ccc([N+](=O)[O-])c3nonc23)C1 (centres unmarked) [compound 144, 4-(3,5-dimethylpiperidin-1-yl)-7-nitro-2,1,3-benzoxadiazole]",1 to 20,,,,≥ 20
"Cc1ccc(Cl)cc1N1CCN(c2ccc([N+](=O)[O-])c3nonc23)CC1 [compound 145, 4-[4-(5-chloro-2-methylphenyl)piperazin-1-yl]-7-nitro-2,1,3-benzoxadiazole]",1 to 20,,,,≥ 20
"O=[N+]([O-])c1ccc(N2CCN(c3ccc(O)cc3)CC2)c2nonc12 [compound 146, 4-[4-(7-nitro-2,1,3-benzoxadiazol-4-yl)piperazin-1-yl]phenol]",1 to 20,,,1 to 20,1 to 20
"O=[N+]([O-])c1ccc(N2CCN(c3ncccc3C(F)(F)F)CC2)c2nonc12 [compound 148, 4-nitro-7-{4-[3-(trifluoromethyl)pyridin-2-yl]piperazin-1-yl}-2,1,3-benzoxadiazole]",1 to 20,,,≥ 20,≥ 20
"O=[N+]([O-])c1ccc(SCCO)c2nonc12 [compound 150, 2-[(7-nitro-2,1,3-benzoxadiazol-4-yl)thio]ethanol]",≥ 20,< 1,< 1,< 1,1 to 20
"CCOC(=O)c1cc(C#N)c(C)nc1N1CCN(c2ccc([N+](=O)[O-])c3nonc23)CC1 [compound 153, ethyl 5-cyano-6-methyl-2-[4-(7-nitro-2,1,3-benzoxadiazol-4-yl)piperazin-1-yl]nicotinate]",1 to 20,,,≥ 20,≥ 20
"O=[N+]([O-])c1ccc(Sc2nc3ccccc3s2)c2nonc12 [compound 158, 4-(1,3-benzothiazol-2-ylthio)-7-nitro-2,1,3-benzoxadiazole]",1 to 20,,,,
"O=[N+]([O-])c1ccc(N2CCC(O)(c3ccc(Cl)cc3)CC2)c2nonc12 [compound 159, 4-(4-chlorophenyl)-1-(7-nitro-2,1,3-benzoxadiazol-4-yl)piperidin-4-ol]",1 to 20,,,,
"COC(=O)c1ccc(NS(=O)(=O)c2ccc(F)c3nonc23)cc1 [compound 167, methyl 4-{[(7-fluoro-2,1,3-benzoxadiazol-4-yl)sulfonyl]amino}benzoate]",≥ 20,≥ 20,≥ 20,1 to 20,1 to 20
"N#Cc1cccnc1N1CCN(S(=O)(=O)c2ccc(Cl)c3nonc23)CC1 [compound 170, 2-{4-[(7-chloro-2,1,3-benzoxadiazol-4-yl)sulfonyl]piperazin-1-yl}nicotinomtrile]",1 to 20,≥ 20,≥ 20,1 to 20,1 to 20
"O=S(=O)(Oc1ccc(N2CCN(S(=O)(=O)c3ccc(Cl)c4nonc34)CC2)cc1)c1ccc(Cl)c2nonc12 [compound 171, 4-{4-[(7-chloro-2,1,3-benzoxadiazol-4-yl)sulfonyl]piperazin-1-yl}phenyl 7-chloro-2,1,3-benzoxadiazole-4-sulfonate]",1 to 20,≥ 20,≥ 20,≥ 20,1 to 20
"O=S(=O)(c1ccc(Sc2cccc3cccnc23)c2nonc12)N1CCN(c2ncc(C(F)(F)F)cc2Cl)CC1 [compound 177, 8-{[7-({4-[3-chloro-5-(trifluoromethyl)pyridin-2-yl]piperazin-1-yl}sulfonyl)-2,1,3-benzoxadiazol-4-yl]thio}quinoline]",1 to 20,≥ 20,≥ 20,≥ 20,≥ 20
"COC(=O)c1ccc(NS(=O)(=O)c2c(Cl)ccc3nonc23)cc1 [compound 178, methyl 4-{[(5-chloro-2,1,3-benzoxadiazol-4-yl)sulfonyl]amino}benzoate]",≥ 20,≥ 20,< 1,1 to 20,1 to 20
"O=[N+]([O-])c1ccc(N2CCN(c3ncc(C(F)(F)F)cc3Cl)CC2)c2nonc12 [compound 315, 4-{4-[3-chloro-5-(trifluoromethyl)pyrindin-2-yl]piperazin-1-yl}-7-nitro-2,1,3-benzoxadiazole]",< 1,,,,
